Patent publication US20110077270A1, “Compositions and Methods for Treating Ocular Inflammation with Lower Risk of Increased Intraocular Pressure” (priority 2009, published 2011)
Values joined by “and” are separate entries in the source; they are usually repeats but may differ in a detail not shown here. Equal entries are not always repeated.

Tests used:
Assay type in all cases: in vivo
[1] = system: protein concentration in the aqueous humor; test: Protein measurement in aqueous humor, rabbit paracentesis model; conditions: second paracentesis; for Protein level in aqueous humor, Mean: group mean; for Protein level in aqueous humor: individual eye
Description: (§1) Each rabbit was placed in a restraint device and tagged with the alphanumeric code. The formulations were instilled (50 μl) into the conjunctival sac of both eyes 180, 120, 90 and 30 min before the first paracentesis; then 15, 30, 90 min after the first paracentesis. To perform the first paracentesis the animals were anaesthetized by intravenous injection of 5 mg/kg Zoletil® (Virbac; 2.5 mg/kg tiletamine HCl and 2.5 mg/kg zolazepam HCl) and one drop of local anesthetic (Novesina®, Novartis) was administered to the eye. Anterior chamber paracentesis was performed with a 26 G needle attached to a tuberculin syringe; the needle was introduced into the anterior chamber through the cornea, taking care not to damage the tissues. Two hours after the first paracentesis, the animals were sacrificed with 0.4 ml Tanax® (Intervet International B.V.) and the second paracentesis was performed. About 100 μl of aqueous humor were removed at the second paracentesis. Aqueous humor was immediately split in four aliquots and stored at −80° C. until analysis. Then both eyes were enucleated and the iris-ciliary body was carefully excised, placed in polypropylene tubes, and stored at −80° C. until analysis.
For protein concentration determination in the aqueous humor we used the Protein Quantification Kit (Fluka; Cat. No. 77371; Lot. No. 1303129). Five microliters of aqueous humor were diluted to 100 μl with water. Twenty microliters of samples and of standards were load into a 96-well plate and recorded in a plate layout. Samples were treated following the assay procedure described in the kit. A microplate reader (GDV, Italy; model DV 990 B/V6) set at 670 nm was used for making the calibration and analyzing the samples.

[2] = system: MPO activity in iris-ciliary body; test: Myeloperoxidase (MPO) activity in iris-ciliary body, rabbit paracentesis model; conditions: for MPO Unit/g: iris-ciliary body samples collected after the second paracentesis, individual eye samples; for MPO activity in iris-ciliary body, Mean: after second paracentesis, group mean
Description: as §1
The activity of MPO was measured as previously described by Williams et al.[5] The iris-ciliary bodies were carefully dried, weighed and immersed in 1 ml of hexa-decyl-trimethyl-ammonium bromide solution. Then, the samples were sonicated for 10 sec on ice by a ultrasound homogenizer (HD 2070, Bandelin electronic), freeze-thawed three times, sonicated for 10 sec and centrifuged at 14,000 g for 10 min to remove cellular debris. An aliquot of the supernatant ([…] was diluted to 3 ml with the o-dianisidine 2HCl/H2O2 solution. The change in absorbance at 460 nm was continuously monitored for 5 min by a spectrophotometer (UV/Vis Spectrometer Lambda EZ 201; Perkin Elmer). The slope of the line (Δ/min) was determined for each sample and used to calculate the number of units of MPO in the tissue as follows:
were ε=11.3 mM^−1. Values were expressed as units of MPO/g of tissue.

[3] = system: rabbit paracentesis model; test: Clinical evaluation (slit lamp clinical score), rabbit paracentesis model; design: key to Clinical Score −180 min / Clinical Score −5 min / Clinical Score +115 min: 0: normal; 1: discrete dilatation of iris and conjunctival vessels; 2: moderate dilatation of iris and conjunctival vessels; 3: intense iridal hyperemia with flare in the anterior chamber; 4: intense iridal hyperemia with flare in the anterior chamber and presence of fibrinous exudates; conditions: for Clinical Score −5 min: 5 min before first paracentesis; for Clinical Score −5 min / Clinical Score +115 min / Clinical Score −180 min: individual eye; for Clinical Score +115 min: 5 min before second paracentesis; for Clinical Score −180 min: basal
[4] = system: PGE2 in the aqueous humor; test: Prostaglandin E2 (PGE2) measurement in aqueous humor, rabbit paracentesis model; conditions: second paracentesis; for PGE2 level in aqueous humor, Mean: group mean; for PGE2 level in aqueous humor: individual eye
Description: as §1
For the quantitative determination of PGE2 in the aqueous humor we used the PGE2 Immunoassay kit (R&D Systems; Cat. No. KGE004; Lot. No. 240010). Eleven microliters or 16 μl of aqueous humor were diluted to 110 μl or 160 μl with the calibrator diluent solution provided with the kit. One hundred microliters of samples and of standards were load into a 96-well plate and recorded in a plate layout. Samples were treated following the assay procedure described in the kit. A microplate reader (GDV, Italy; model DV 990 B/V6) set at 450 nm (wavelength correction at 540 nm) was used for making the calibration and analyzing the samples.

[5] = system: rabbit paracentesis model; test: Pupillary diameter measurement, rabbit paracentesis model; conditions: individual eye; for Pupillary diameter T1: −180 min: 50 μl drops, basal; for Pupillary diameter T2: −5 min: 5 min before first paracentesis; for Pupillary diameter T3: +115 min: 5 min before second paracentesis; for Pupillary diameter Δ(T3 − T1): +115 min minus −180 min
Description: as §1
The pupillary diameter of both eyes was measured with a Castroviejo caliper 180 min and 5 min before the first paracentesis and 5 min before the second paracentesis.

[6] = system: leukocytes (PMN) in aqueous humor; test: Leukocytes (PMN) measurement in aqueous humor, rabbit paracentesis model; conditions: second paracentesis; for PMN numbers in aqueous humor: individual eye
Description: as §1
For the determination of the number of leukocytes we used a haemocytometer (Improved Neubauer Chamber; Bright-line, Hausser Scientific) and a Polyvar 2 microscope (Reichert-Jung).

[7] = 0.5% topical formulation, +115 min

## CC(C(=O)O)c1ccc(-c2ccccc2)c(F)c1 (centres unmarked) [F, flurbiprofen, reference compound]
[1]; 0.03% topical formulation
  Protein level in aqueous humor, Mean: 20.910 mg/mL
  Protein level in aqueous humor: 20.78 mg/mL and 28.80 mg/mL and 23.41 mg/mL and 20.21 mg/mL and 17.53 mg/mL and 15.12 mg/mL and 20.52 mg/mL
[2]; 0.03% F
  MPO Unit/g: 1.10 Unit/g and 1.70 Unit/g and 0.34 Unit/g and 0.75 Unit/g and 0.74 Unit/g and 0.63 Unit/g and 0.73 Unit/g and 1.27 Unit/g
[2]; 0.03% topical formulation
  MPO, p vs CTR: < 0.01
  MPO activity in iris-ciliary body, Mean: 0.906 MPO Unit/g
[3]; 0.03% topical formulation
  Clinical Score −5 min: 0
  Clinical Score +115 min: 2
  Clinical Score −180 min: 0
[3]; 0.03% topical formulation, +115 min
  Percentage of eyes with clinical score 2: 100%
[3]; 0.03% topical formulation, −5 min
  Percentage of eyes with clinical score 0: 100%
[3]; 0.03% topical formulation, −180 min (basal)
  Percentage of eyes with clinical score 0: 100%
[4]; 0.03% topical formulation
  PGE2 level in aqueous humor, Mean: 1.189 ng/mL
  PGE2 level in aqueous humor: 1.04 ng/ml and 0.75 ng/ml and 0.85 ng/ml and 1.11 ng/ml and 2.11 ng/ml (2×) and 0.93 ng/ml and 0.61 ng/ml
[5]; 0.03% topical formulation
  Pupillary diameter T1: −180 min: 5.0 mm (2×) and 7.0 mm and 6.0 mm (4×) and 5.5 mm
  Pupillary diameter T2: −5 min: 6.0 mm (3×) and 6.5 mm (3×) and 7.0 mm and 5.5 mm
  Pupillary diameter T3: +115 min: 4.0 mm and 3.5 mm and 5.5 mm (2×) and 5.0 mm (2×) and 4.5 mm and 6.0 mm
  Pupillary diameter Δ(T3 − T1): −1.0 mm (3×) and −1.5 mm (3×) and 0.0 mm (2×)
[6]; 0.03% topical formulation
  PMN numbers in aqueous humor: 50 number/μl and 40 number/μl (2×) and 20 number/μl (2×) and 10 number/μl and 30 number/μl

## CCOC(=O)O[C@]1(C(=O)OCCl)CC[C@H]2[C@@H]3CCC4=CC(=O)C=C[C@]4(C)[C@H]3[C@@H](O)C[C@@]21C [LE, loteprednol etabonate, reference compound]
[1]; 0.5% topical formulation
  Protein level in aqueous humor, Mean: 33.905 mg/mL
  Protein level in aqueous humor: 36.14 mg/mL and 39.10 mg/mL and 34.69 mg/mL and 26.10 mg/mL and 26.30 mg/mL and 28.16 mg/mL and 40.90 mg/mL and 39.85 mg/mL
[2]; 0.5% LE
  MPO Unit/g: 0.30 Unit/g and 0.51 Unit/g and 0.81 Unit/g and 0.60 Unit/g and 0.73 Unit/g and 1.01 Unit/g
[2]; 0.5% topical formulation
  MPO activity in iris-ciliary body, Mean: 0.661 MPO Unit/g
[3]; 0.5% topical formulation
  Clinical Score −5 min: 0
  Clinical Score +115 min: 2 (2×) and 1 (6×)
  Clinical Score −180 min: 0
[3]; [7]
  Percentage of eyes with clinical score 1: 75%
  Percentage of eyes with clinical score 2: 25%
[3]; 0.5% topical formulation, Kruskal-Wallis, Dunn
  Clinical score, p versus CTR: < 0.05
[3]; 0.5% topical formulation, −5 min
  Percentage of eyes with clinical score 0: 100%
[3]; 0.5% topical formulation, −180 min (basal)
  Percentage of eyes with clinical score 0: 100%
[4]; 0.5% topical formulation
  PGE2 level in aqueous humor, Mean: 0.672 ng/mL
  PGE2 level in aqueous humor: ^2N/D and 0.23 ng/ml and 0.68 ng/ml and 1.10 ng/ml
[5]; 0.5% topical formulation
  Pupillary diameter T1: −180 min: 6.0 mm (3×) and 6.5 mm (5×)
  Pupillary diameter T2: −5 min: 6.0 mm (3×) and 6.5 mm (5×)
  Pupillary diameter T3: +115 min: 4.5 mm and 5.0 mm (2×) and 5.5 mm (2×) and 6.0 mm (3×)
  Pupillary diameter Δ(T3 − T1): −1.5 mm (2×) and −1.0 mm (3×) and 0.0 mm and −0.5 mm (2×)
[6]; 0.5% topical formulation, group mean
  PMN numbers in aqueous humor, Mean: 28.333 number/μl
[6]; 0.5% topical formulation
  PMN numbers in aqueous humor: 40 number/μl (2×) and 20 number/μl (3×) and 30 number/μl
